Experimental findings from patent US9938267B2, “Heterocyclic inhibitors of glutaminase” (Calithera Biosciences, Inc., priority 2011, dated 2018) are described below.

A word on the Solubility: it is the dissolved amount per volume that the medium holds. The low end stands for little dissolved substance, the high end for much dissolved substance.

Series [1] in a line: Solubility (vortex mixed at room temperature, filtered, HPLC quantitation). Type of series: physicochemical. How it is done: Ca. 1 mg portions of test article were combined with 120 μL solvent in wells of a 96×2 mL polypropylene plate. […] The contents of all wells were then filtered through a 0.45 μm GHP filter plate to yield clear filtrates. 5 μL of each filtrate was diluted into 100 μL DMF and vortex mixed to yield HPLC samples. Duplicate quantitation standards for each test article were prepared by diluting weighed portions of solid test article in measured volumes of DMF. 2 μL of each HPLC sample and quantitation standard were analyzed by HPLC using the method outlined in Table 5. Dissolved test article concentrations were calculated by peak area ratio against the appropriate quantitation standards.

The target of series [2] is T1, recombinant form of Glutaminase 1 (GAC) (Homo sapiens, UniProt O94925). The experiment in a line: Recombinant enzyme assay (GAC, GDH-coupled absorbance, no preincubation). Type of series: biochemical. Conditions: read-out: GAC Delta N2 IC50 no preinc. How it is done: (§1) Enzymatic reaction was started with the addition of 50 μL of enzyme solution (50 mM Tris-HCl pH 8.0, 0.2 mM EDTA, 150 mM K2HPO4, 0.1 mg/ml BSA, 1 mM DTT, 10 ppm antifoam, 4 units/ml GDH, 4 mM adenosine diphosphate, and 4 nM GAC) and read in a Molecular Devices M5 plate reader at 20° C. The plate reader was configured to read absorbance (λ=340 nm) in kinetic mode for 15 minutes. Data was recorded as milli-absorbance units per minute and slopes were compared to a control compound and a DMSO-only control on the same plate. Compounds with slopes less than the DMSO control were considered inhibitors and plate variability was assessed using the control compound.

In series [3] the target is T1, recombinant form of Glutaminase 1 (GAC). The experiment in a line: Recombinant enzyme assay - time dependence (60 minutes enzyme/compound preincubation). Type of series: biochemical. Conditions: read-out: GAC Delta N2 IC50 60 min preinc. Here is the method: as §1, with “The enzyme/compound mix was sealed with sealing foil (USA Scientific) and allowed to incubate, with mild agitation, for 60 minutes at 20° C. Enzymatic” for “Enzymatic”, “substrate” for “enzyme”, “DTT, 20 mM L-glutamine, 2 mM NAD^+, and” for “DTT,”, “antifoam)” for “antifoam, 4 units/ml GDH, 4 mM adenosine diphosphate, and 4 nM GAC)”

For series [4], the system named is P493-6 (myc "on") cells. Kind of series: Cell proliferation assay (72 hrs, Cell Titer Glo or Viacount FACS). Type of series: cell-based. Conditions: read-out: Cell prolif P493 72 h IC50; P493 cells, 72 h. How it is done: P493-6 (myc “on”) cells were maintained in growth media (RPMI-1640, 10% FBS, 2 mM glutamine, 100 units/ml Penicillin and 100 μg/ml streptomycin) at 37° C. with 5% CO2. For compound assay, P493-6 cells were plated in 96-well V-bottom plates on the day of compound addition in 50 μl of growth media at a cell density of 200,000 cells/ml (10,000 cells/well). Compounds were serially diluted in 100% DMSO at 200-times the final concentration. Compounds were diluted 100-fold into growth media and then 50 μl of this mixture was added to cell plates making the final concentration of DMSO 0.5%. Cells were incubated with compound for 72 hrs at 37° C. with 5% CO2 and analyzed for antiproliferative effects either by Cell Titer Glo (Promega) or FACS analysis using the Viacount (Millipore) kit on the Guava instrument.
A general note: Cellular ATP, detected with luciferase, serves as a proxy for viable cell number.

The test system of series [5] is HCT116 colon carcinoma xenograft. Kind of series: HCT116 colon carcinoma xenograft efficacy study. Type of series: in vivo. Conditions: female scid/bg mice, intraperitoneal, twice daily; FIG. 1. How it is done: Certain compounds were assayed for in vivo efficacy in xenograft models as follows.
Female scid/bg mice, approximately 6 weeks of age, were implanted subcutaneously on the right flank with 5×10^6 HCT116 cells per mouse in a volume of 100 uL of sterile PBS. When tumors reached a volume of 50-100 mm^3, mice were randomized to groups of n=10 to receive either vehicle or test compound delivered twice daily by intraperitoneal injection. Tumors were measured three times per week using Vernier calipers and tumor volume calculated using the formula: Volume=(Length×Width^2/2), where length and width are the longest perpendicular sides of the tumor. Dosing continued twice daily until control tumors reached a size of 2000 mm^3. Statistical comparisons were made using a 2-way ANOVA with Bonferroni post-test.

Series [6] relates to Caco-2 cell monolayers. The experiment in a line: Caco-2 permeability assay (bidirectional). Type of series: in vitro ADME. From the text:
Caco-2 cells are commonly used in a confluent monolayer on a cell culture insert filter. When cultured in this format and under specific conditions, the cells become differentiated and polarized such that their phenotype, morphologically and functionally resembles the enterocytes lining the small intestine. The cell monolayer provides a physical and biochemical barrier to the passage of small molecules, and is widely used across the pharmaceutical industry as an in vitro model of the human small intestinal mucosa to predict the absorption of orally administered drugs (Hidalgo et al., Gastroenterology, 1989; Artursson, J. Pharm. Sci., 1990). The correlation between the in vitro apparent permeability (P ? app) across Caco-2 monolayers and the in vivo absorption is well established (Artursson et al., Biochem. Biophys. Res. Comm., 1991).
The present assay was used to determine the bidirectional permeability of the compounds of the invention through Caco-2 cell monolayers. Caco-2 cells were grown in confluent monolayers where the media of both the apical (A) and basolateral (B) sides were at pH 7.4. Compounds were dosed at 1 μM in the presence of 200 μM Lucifer Yellow, on the apical side (A→B) or the basolateral side (B→A) for assessment, in duplicate.
(Caco-2 monolayers are a common model of the intestinal barrier.)

SMILES strings stand for the structures. In brackets after ≈: the same amount, converted by molar mass.

`CCCC(=O)OCN(C(=O)Cc1ccccc1)c1nnc(CCCCc2ccc(NC(=O)Cc3ccccc3)nn2)s1` [Compound 402]: the Solubility in series [1] (10% CrEL/50 mM cit) was found to be 157 µg/mL (≈ 0.268 mM); in series [1] (PEG400), 30179 µg/mL (≈ 51.4 mM).
Compound `O=C(Cc1cccc(OC(F)(F)F)c1)Nc1ccc(CCCCc2nnc(NC(=O)C(O)c3cccc(Cl)c3)s2)nn1` (stereo not shown) [Compound 447] displayed a Solubility in series [1] (PG) of 8265 µg/mL (≈ 13.3 mM).
Regarding `NCc1cccc(CC(=O)Nc2nnc(CCCCc3nnc(NC(=O)Cc4cccc(CN)c4)s3)s2)c1` [Compound 325], the IC50 is 660 nM in series [2], 170 nM in series [3] and 30 nM in series [4].
In the case of `O=C(CCN1CCOCC1)OCC(C(=O)Nc1nnc(CCCCc2nnc(NC(=O)C(COC(=O)CCN3CCOCC3)c3ccccc3)s2)s1)c1ccccc1` (stereo not shown) [Compound 188, {[5,5′-(butane-1,4-diyl)-bis(1,3,4-thiadiazole-5,2-diyl)]-bis(azanediyl)}-bis(3-oxo-2-phenylpropane-3,1-diyl)-bis(3-morpholinopropanoate)], in series [5], the tumor size result was “reduced tumor size”.
With `O=C(Cc1cccc(OC(F)(F)F)c1)Nc1ccc(CCCCc2nnc(NC(=O)Cc3ccccc3)s2)nn1` [Compound 585], the Solubility in series [1] (Capryol 90) was 1744 µg/mL (≈ 3.06 mM).
`O=C(Cc1cccc(OC(F)(F)F)c1)Nc1ccc(CCCCc2nnc(NC(=O)[C@@H](O)c3ccccc3)s2)nn1` [Compound 703] yielded a Solubility in series [1] (20% HPBCD/50 mM cit) of 651 µg/mL (≈ 1.11 mM).
On to `O=C(Cc1cccc(OC(F)(F)F)c1)Nc1ccc(CCCCc2nnc(NC(=O)Cc3cccc(F)c3)s2)nn1` [Compound 679], for which the “Significant Efflux” value in series [6] was “No”.
